# Reference: patent US5190783A, “Primary amide esters as low calorie fat mimetics” (Nabisco, Inc., priority 1991, dated 1993)
# Test: caloric availability by in vivo animal feeding study (body weight gain)
# Design: species or system Sprague-Dawley rats
# Settings: rats, diet of 50% fort and 21% test compound, 14 days
# From the text: This example illustrates how the novel fat mimetics of this invention are screened for caloric availability by a carefully controlled in vivo animal feeding study.
# An experimental relationship between total calories ingested and animal body weight gain is established by monitoring the body weight gain associated with consumption of a nutritionally balanced diet containing varying concentrations of a reference substance such as corn oil which has a known caloric availability. Correlations between total calories ingested and body weight gain are excellent (r=0.99).
# Caloric availability of a test material is evaluated by substituting a specific weight of the test material for the reference substance and observing the body weight gain. The gain in body weight is equated to a total number of calories using the correlation previously established for the reference data. The estimated number of calories ingested are divided by the weight of test material to give the apparent calories per gram for the test material. Generally speaking, in these bioavailability studies, the degree of perianal pelt soiling correlates with reduced bioavailability.
# The test animals are six-week-old male Sprague-Dawley rats obtained from the Portage, Michigan facility of the Charles River Laboratories, Inc. After acclimation for 15 days, the test duration is 14 days. […]
smiles,measurement,value
"CCCCCCCC/C=C\CCCCCCCC(=O)NCC(COC(=O)CCCCCCC/C=C\CCCCCCCC)OC(=O)CCCCCCC/C=C\CCCCCCCC (stereo not shown) [Example 2, 2,3-s(oleyoyloxy)propyl oleamide]",calories upon being metabolized (apparent calories per gram),about 3.3 kcal/gram
